The text below walks through data of patent US7645864B2, “Erythromycin derivative having novel crystal structures and processes for their production” (Chugai Seiyaku Kabushiki Kaisha, priority 2001, dated 2010).

Each structure is given as a SMILES string.

The nature of series [1]: Average particle size by particle size distribution analyzer. The series is classed as physicochemical. The conditions noted are these: D-form crystal. The text has this:
The content of residual solvent may be determined in a known manner, for example, by gas chromatography. The details on gas chromatography can be found in the Japanese Pharmacopoeia, 13th Edition, published by Hirokawa Publishing Co. (1996) pp. B83-B94, the Japanese Pharmacopoeia, 14th Edition, published by Hirokawa Publishing Co. (2001) pp. B98-B114 and elsewhere. In general, gas chromatography will cause a measurement error falling within around ±1%. The compound of the present invention can also be determined for its average particle size in a known manner or using various devices that are commercially available, such as a dry particle size distribution analyzer. In general, such a particle size distribution analyzer will cause a measurement error falling within around ±5%.
In these examples and comparison examples, X-ray diffractometry was performed using a powder X-ray diffractometer RINT-1100 (Rigaku), the content of residual solvent was determined using a gas chromatograph GC-17A (Shimadzu Corp.), and the average particle size was determined using a particle size distribution analyzer RPS-95 (Seishin Enterprise Co., Ltd.).

For series [2] the following is noted: reported in JP 9-100291 A; cited from earlier work.

Consider `CC[C@H]1OC(=O)[C@H](C)[C@@H](O[C@H]2C[C@@](C)(OC)[C@@H](O)[C@H](C)O2)[C@H](C)[C@@H](O[C@@H]2O[C@H](C)C[C@H](N(C)C(C)C)[C@H]2O)[C@]2(C)CC(C)=C(O2)[C@H](C)C(=O)[C@]1(C)OC` [Comparison Example 1, reference compound], for which, in series [1], the “Particle size (average particle size)” value stood at 82 μm. On the same count and under the same terms, the figure for `CC[C@H]1OC(=O)[C@H](C)[C@@H](O[C@H]2C[C@@](C)(OC)[C@@H](O)[C@H](C)O2)[C@H](C)[C@@H](O[C@@H]2O[C@H](C)C[C@H](N(C)C(C)C)[C@H]2O)[C@]2(C)CC(C)=C(O2)[C@H](C)C(=O)[C@]1(C)OC` [Comparison Example 2, reference compound] is 61 μm.

As to `CC[C@H]1OC(=O)[C@H](C)[C@@H](O[C@H]2C[C@@](C)(OC)[C@@H](O)[C@H](C)O2)[C@H](C)[C@@H](O[C@@H]2O[C@H](C)C[C@H](N(C)C(C)C)[C@H]2O)[C@]2(C)CC(C)=C(O2)[C@H](C)C(=O)[C@]1(C)OC` [D-type crystal], the “Stability compared with the A-type and C-type crystals” value in series [2] is recorded as “superior in stability”. `CC[C@H]1OC(=O)[C@H](C)[C@@H](O[C@H]2C[C@@](C)(OC)[C@@H](O)[C@H](C)O2)[C@H](C)[C@@H](O[C@@H]2O[C@H](C)C[C@H](N(C)C(C)C)[C@H]2O)[C@]2(C)CC(C)=C(O2)[C@H](C)C(=O)[C@]1(C)OC` [Example 2]: in series [1], the “Particle size (average particle size)” value was 302 μm. Still for that read-out and setting: the result for `CC[C@H]1OC(=O)[C@H](C)[C@@H](O[C@H]2C[C@@](C)(OC)[C@@H](O)[C@H](C)O2)[C@H](C)[C@@H](O[C@@H]2O[C@H](C)C[C@H](N(C)C(C)C)[C@H]2O)[C@]2(C)CC(C)=C(O2)[C@H](C)C(=O)[C@]1(C)OC` [Example 3] reads 197 μm; that for `CC[C@H]1OC(=O)[C@H](C)[C@@H](O[C@H]2C[C@@](C)(OC)[C@@H](O)[C@H](C)O2)[C@H](C)[C@@H](O[C@@H]2O[C@H](C)C[C@H](N(C)C(C)C)[C@H]2O)[C@]2(C)CC(C)=C(O2)[C@H](C)C(=O)[C@]1(C)OC` [Example 7], 163 μm; that for `CC[C@H]1OC(=O)[C@H](C)[C@@H](O[C@H]2C[C@@](C)(OC)[C@@H](O)[C@H](C)O2)[C@H](C)[C@@H](O[C@@H]2O[C@H](C)C[C@H](N(C)C(C)C)[C@H]2O)[C@]2(C)CC(C)=C(O2)[C@H](C)C(=O)[C@]1(C)OC` [Example 8], 185 μm.
